O=C(O)Cc1c[nH]c2ccccc12
solubility (mole fraction)
Conditions	278.15 K	283.15 K	288.15 K	293.15 K	298.15 K	303.15 K	308.15 K	313.15 K	318.15 K	323.15 K
in 1,4-dioxane	–	–	2.06e-05	2.2e-05	2.35e-05	2.51e-05	2.69e-05	2.89e-05	3.12e-05	3.38e-05
in DMF	2.98e-05	3.12e-05	3.29e-05	3.47e-05	3.67e-05	3.9e-05	4.16e-05	4.45e-05	4.74e-05	5.07e-05
in DMSO	–	–	–	3.73e-05	3.95e-05	4.2e-05	4.45e-05	4.77e-05	5.12e-05	5.48e-05
in acetone	2.49e-05	2.6e-05	2.73e-05	2.89e-05	3.07e-05	3.26e-05	3.49e-05	3.73e-05	3.98e-05	4.25e-05
in acetonitrile	6.51e-06	6.98e-06	7.47e-06	8.03e-06	8.68e-06	9.36e-06	1.01e-05	1.1e-05	1.2e-05	1.3e-05
in chloroform	2.88e-06	2.99e-06	3.11e-06	3.29e-06	3.48e-06	3.62e-06	3.88e-06	4.07e-06	4.34e-06	4.61e-06
in ethanol	1.17e-05	1.25e-05	1.35e-05	1.47e-05	1.6e-05	1.73e-05	1.86e-05	2.03e-05	2.22e-05	2.41e-05
in ethyl acetate	3.44e-05	3.64e-05	3.85e-05	4.09e-05	4.32e-05	4.58e-05	4.85e-05	5.13e-05	5.43e-05	5.76e-05
in isopropanol	2.15e-05	2.27e-05	2.41e-05	2.56e-05	2.71e-05	2.88e-05	3.1e-05	3.34e-05	3.58e-05	3.88e-05
in methanol	8.95e-06	9.76e-06	1.05e-05	1.17e-05	1.27e-05	1.38e-05	1.53e-05	1.67e-05	1.83e-05	1.99e-05
in n-butanol	2.78e-05	2.9e-05	3.04e-05	3.2e-05	3.39e-05	3.6e-05	3.83e-05	4.09e-05	4.34e-05	4.65e-05
in n-propanol	1.45e-05	1.54e-05	1.65e-05	1.8e-05	1.93e-05	2.08e-05	2.24e-05	2.42e-05	2.62e-05	2.85e-05
